Test results taken from the supplement of paper PMC10307832.

Columns and labels:
Test in all cases: relative viability (nuclei count vs DMSO), 5 days (fraction); higher = more cells survive
[1] = compound: CC(C)C[C@@H](C(=O)N[C@H](C(=O)OC1CCCC1)c1ccccc1)[C@H](O)C(=O)NO [Tosedostat] + NC(=O)Nc1cc(-c2cccc(F)c2)sc1C(=O)N[C@H]1CCCNC1 [AZD7762] (partner 0.2 µM)
Outline: (§1)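 One day after seeding in 1536-well plates, lung cancer cell lines were dosed by pin tool. Dosing was either single-drug or a fixed anchor-drug dose plus five library-drug doses (not always all listed) in √10 steps. After 5 days, nuclei were stained in one fix-and-stain step and counted on 4× images, and relative viability is the nuclei count of treated wells over that of vehicle wells, given as the median of duplicate plates.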

[2] = compound: CC(C)C[C@@H](C(=O)N[C@H](C(=O)OC1CCCC1)c1ccccc1)[C@H](O)C(=O)NO [Tosedostat] + CCNC(=O)c1noc(-c2cc(C(C)C)c(O)cc2O)c1-c1ccc(CN2CCOCC2)cc1 [Luminespib] (partner 0.01 µM)
Outline: as §1

[3] = compound: CC1=NN=C(O1)C2=NN=C(C=C2)N3CCC(CC3)OC4=C(C=CC(=C4)F)Cl + CC(=O)c1c(C)c2cnc(Nc3ccc(N4CCNCC4)cn3)nc2n(C2CCCC2)c1=O [Palbociclib] (partner 0.5 µM)
Outline: as §1

[4] = compound: CC(C)C[C@@H](C(=O)N[C@H](C(=O)OC1CCCC1)c1ccccc1)[C@H](O)C(=O)NO [Tosedostat] + CC(=O)c1c(C)c2cnc(Nc3ccc(N4CCNCC4)cn3)nc2n(C2CCCC2)c1=O [Palbociclib] (partner 0.5 µM)
Outline: as §1

Row | Cell Line | relative viability ([1]; first compound 0.02 µM) | relative viability ([1]; first compound 0.06325 µM) | relative viability ([1]; first compound 0.2 µM) | relative viability ([1]; first compound 0.6325 µM) | relative viability ([1]; first compound 2 µM) | relative viability ([2]; first compound 0.02 µM) | relative viability ([2]; first compound 0.06325 µM) | relative viability ([2]; first compound 0.2 µM) | relative viability ([2]; first compound 0.6325 µM) | relative viability ([2]; first compound 2 µM) | relative viability ([3]; first compound 0.253 µM) | relative viability ([3]; first compound 0.8 µM) | relative viability ([3]; first compound 2.53 µM) | relative viability ([3]; first compound 8 µM) | relative viability ([4]; first compound 0.02 µM) | relative viability ([4]; first compound 0.06325 µM) | relative viability ([4]; first compound 0.2 µM) | relative viability ([4]; first compound 0.6325 µM) | relative viability ([4]; first compound 2 µM)
1 | NCI-H1437 | 1.14 | 1.15 | 1.14 | 1.08 | 0.904 | 1.13 | 1.07 | 1.2 | 1.24 | 1.13 | 0.22 | 0.233 | 0.268 | 0.168 | 0.355 | 0.32 | 0.357 | 0.353 | 0.38
2 | NCI-H3122 | 1.1 | 0.919 | 0.894 | 0.875 | 1.14 | 0.0953 | 0.083 | 0.106 | 0.122 | 0.132 | 0.191 | 0.201 | 0.183 | 0.221 | 0.195 | 0.211 | 0.216 | 0.22 | 0.249
3 | NCI-H522 | 0.901 | 0.907 | 0.953 | 0.827 | 0.738 | 1.29 | 1.27 | 1.23 | 1.41 | 1.27 | 1.1 | 1.01 | 0.65 | 1.05 | 0.964 | 0.845 | 1.02 | 1.17 | 0.945
4 | PC-14 | 0.434 | 0.352 | 0.314 | 0.273 | 0.0971 | 0.163 | 0.197 | 0.16 | 0.207 | 0.127 | 0.503 | 0.444 | 0.449 | 0.44 | 0.583 | 0.469 | 0.502 | 0.447 | 0.444
5 | NCI-H2170 | 0.85 | 0.94 | 0.948 | 0.976 | 0.892 | 0.819 | 0.637 | 0.612 | 0.592 | 0.662 | 0.196 | 0.22 | 0.22 | 0.175 | 0.399 | 0.394 | 0.393 | 0.406 | 0.393
6 | NCI-H23 | 0.31 | 0.248 | 0.232 | 0.202 | 0.253 | 0.233 | 0.203 | 0.22 | 0.237 | 0.207 | 0.44 | 0.442 | 0.466 | 0.454 | 0.509 | 0.494 | 0.521 | 0.37 | 0.428
7 | NCI-H650 | 1.32 | 1.05 | 0.904 | 0.851 | 0.725 | 0.952 | 0.773 | 0.834 | 0.714 | 0.755 | 0.323 | 0.318 | 0.32 | 0.314 | 0.31 | 0.342 | 0.291 | 0.35 | 0.295
8 | LU99A | 0.369 | 0.333 | 0.374 | 0.293 | 0.297 | 0.316 | 0.245 | 0.337 | 0.277 | 0.232 | 0.402 | 0.484 | 0.443 | 0.418 | 0.428 | 0.449 | 0.476 | 0.376 | 0.325
9 | PC-3 [JPC-3] | 0.752 | 0.747 | 0.746 | 0.647 | 0.54 | 0.735 | 0.734 | 0.731 | 0.692 | 0.537 | 0.507 | 0.538 | 0.537 | 0.551 | 0.538 | 0.547 | 0.554 | 0.493 | 0.555
10 | RERF-LC-KJ | 1.12 | 1.08 | 1.08 | 0.912 | 0.664 | 1.35 | 1.23 | 1.36 | 1.08 | 1.2 | 0.617 | 0.667 | 0.633 | 0.688 | 1.23 | 1.04 | 0.845 | 0.755 | 0.859
11 | NCI-H1793 | 0.458 | 0.584 | 0.546 | 0.231 | 0.338 | 0.166 | 0.233 | 0.322 | 0.245 | 0.249 | 0.304 | 0.314 | 0.342 | 0.301 | 0.302 | 0.325 | 0.339 | 0.293 | 0.375
12 | NCI-H1915 | 0.685 | 0.681 | 0.785 | 0.612 | 0.54 | 0.864 | 0.79 | 0.814 | 0.803 | 0.608 | 0.385 | 0.291 | 0.319 | 0.266 | 0.41 | 0.512 | 0.554 | 0.523 | 0.495
13 | H3255 | 1.04 | 0.919 | 0.953 | 0.81 | 0.746 | 1.02 | 0.807 | 0.906 | 0.683 | 0.75 | 0.296 | 0.305 | 0.309 | 0.321 | 0.303 | 0.32 | 0.342 | 0.331 | 0.319
14 | 201T | 0.592 | 0.668 | 0.669 | 0.584 | 0.576 | 0.969 | 1.2 | 1.14 | 1.24 | 1.18 | 0.219 | 0.251 | 0.221 | 0.21 | 0.362 | 0.367 | 0.372 | 0.38 | 0.377
15 | NCI-H2405 | 0.817 | 0.744 | 0.718 | 0.652 | 0.715 | 0.8 | 0.809 | 0.838 | 0.786 | 0.79 | 0.319 | 0.349 | 0.332 | 0.346 | 0.576 | 0.559 | 0.548 | 0.484 | 0.466
16 | HOP-62 | 0.56 | 0.556 | 0.753 | 0.345 | 0.379 | 1.01 | 0.894 | 0.925 | 0.919 | 0.817 | 0.351 | 0.356 | 0.265 | 0.212 | 0.478 | 0.467 | 0.463 | 0.462 | 0.439
17 | CAL-12T | 0.703 | 0.577 | 0.593 | 0.678 | 0.629 | 0.364 | 0.304 | 0.834 | 0.713 | 0.353 | 0.441 | 0.485 | 0.43 | 0.336 | 0.468 | 0.362 | 0.312 | 0.299 | 0.397
18 | NCI-H727 | 0.667 | 0.559 | 0.65 | 0.669 | 0.53 | 0.305 | 0.513 |  | 0.427 | 0.254 | 0.672 | 0.708 | 0.718 | 0.596 | 0.715 | 0.637 | 0.617 | 0.645 | 0.597
19 | NCI-H1993 | 0.678 | 0.64 | 0.741 | 0.556 | 0.493 | 0.87 | 0.736 | 1.05 | 0.827 | 0.781 | 0.523 | 0.579 | 0.644 | 0.603 | 0.72 | 0.688 | 0.698 | 0.67 | 0.562
20 | NCI-H2126 | 0.99 | 1.03 | 0.919 | 0.974 | 0.953 | 0.848 | 0.905 | 0.91 | 0.878 | 0.654 | 0.368 | 0.338 | 0.326 | 0.353 | 0.328 | 0.352 | 0.352 | 0.352 | 0.352
